Results from PubChem BioAssay (NCI).
Several values for one entry are separate records, joined by “and”; a condition that tells them apart may be missing. Equal entries are not always repeated.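 Each compound was tested at five concentrations against cells in 96-well plates for 48 hours. At the GI50, growth is halved. TGI: concentration producing complete growth inhibition.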

System: MDA-MB-468 breast
Experiment: NCI anticancer screen, dose series, 48 h

Structure (SMILES) | GI50 | TGI
CCC1(OC(=O)CN2CCN(CCO)CC2)C(=O)OCc2c1cc1n(c2=O)Cc2cc3ccccc3nc2-1 (stereo not given) | 149 nM | 449 nM
COc1ccc(-c2cc(-c3ccc(Nc4nc(Nc5ccc(Cl)cc5)nc(Nc5ccc(Cl)cc5)n4)cc3)nc(N)c2C#N)cc1 | 369 nM | 1960 nM
O=C1[C@H]2Cc3c([nH]c4ccccc34)[C@@H](c3ccc(Br)cc3)N2C(=O)CN1C1CCN(Cc2ccccc2)CC1 | 1140 nM | 4850 nM
Cc1cc2c(C)c3cc(C)c(N)cc3nc2cc1N | 399 nM | 2370 nM
COC(=O)[C@]12CC[C@@H](C)[C@H](C)[C@@H]1C1=CC[C@@H]3[C@@]4(C)CC(=O)[C@H](O)[C@@]5(C)COC(=C45)C[C@@]3(C)[C@]1(C)CC2 | 14900 nM | 30500 nM
O/N=C1\CCc2cc(-c3nc(C4CCNCC4)[nH]c3-c3ccncc3)ccc21 | > 25000 nM | > 25000 nM
O=C1c2cc3c(cc2-c2c1c1cc(Cl)c(Cl)cc1c(=O)n2CCCn1ccnc1)OCO3 | < 10 nM | 45.8 nM
CCCCCCCCCCCCCCCCCCNC(=O)[C@H]1CSC(c2ccc(OC)c(F)c2)N1 (stereo not given in full) | 18600 nM | > 50900 nM
Cc1ccc(S(=O)(=O)NC(CCC(=O)Nc2ccc(Cl)cc2)C(=O)Nc2ccc(Cl)cc2)cc1 (stereo not given) | 1290 nM | 6530 nM
COc1ccc(N(C)c2nc(C)nc3ccccc23)cc1 | < 10 nM | < 10 nM
COc1cc(-c2cc(C(=O)N3CCN(C(=O)c4ccccc4NCc4ccco4)CC3)nc3cc(-c4ccccc4)nn23)cc(OC)c1OC | 2320 nM | 7200 nM
COc1ccc(/C(=C/c2cc(OC)c(OC)c(OC)c2)[N+](=O)[O-])cc1 | 2010 nM | 4780 nM
O=C(Nc1ccncc1)C(=O)c1cn(S(=O)(=O)c2ccc(Br)cc2)c2ccccc12 | 608 nM | 7840 nM
O=C1C=C[C@]2(C[C@@H](c3cccc(C(F)(F)F)c3)O[C@@H](c3cccc(C(F)(F)F)c3)O2)O1 | 1670 nM | 3590 nM
C[C@@H](c1ccc2nccn2c1)n1nnc2ncc(-c3cnn(C)c3)nc21 | 38600 nM | > 100000 nM
COc1cc[nH]c1/C=C1\C(=O)Nc2ccc(F)c(C#C[C@@H](O)[C@@H](N)[C@@H](C)O)c21 | 476 nM | 1180 nM
O=C(Nc1n[nH]c2nc(-c3ccco3)c(Br)cc12)C1CC1 | – | > 25000 nM
Cn1cc(-c2ccc(=O)n(Cc3cccc(-c4ncc(OCCN5CCOCC5)cn4)c3)n2)cn1 | 14400 nM | 86800 nM
N#C/C(=C\c1c(-c2ccccc2)[nH]c2ccccc12)C(=O)c1ccc(Cl)cc1 | 527 nM | 6290 nM

Structure (SMILES) | GI50 | TGI
COc1ccc([C@H]2C(=O)N(c3cc(OC)c(OC)c(OC)c3)[C@@H]2c2ccc(OC)c(O)c2)cc1 | 23 nM | 62.8 nM
O=[N+]([O-])c1ccc(N/N=C\c2cc(Cl)ccc2O)nc1 | 2510 nM | 7250 nM
OB([O][Hg][c]1ccccc1)[O][Hg][c]1ccccc1 | 88.5 nM | 303 nM
CCOC(=O)c1cnc(SCc2ccc(Cl)c(Cl)c2)nc1N1CC1 | 2400 nM | 6140 nM
COc1cc(CCc2cc(NC(=O)c3ccc(N4C[C@@H](C)N[C@@H](C)C4)cc3)n[nH]2)cc(OC)c1 | > 10000 nM and 8100 nM | > 10000 nM and 20800 nM
CC1(C)N=C(N)N=C(N)N1c1cccc(/C=C/C=C/c2cccc([N+](=O)[O-])c2)c1 | 346 nM | 12000 nM
CCCCCCCCCCCCc1ccc(C(=O)/C=C/C(=O)O)cc1 | 1660 nM | 3350 nM
O=C1/C(=C\c2ccc(Cl)cc2)CN(C(=S)Nc2ccccc2)C/C1=C\c1ccc(Cl)cc1 | 457 nM | 1660 nM
Nc1cccc2c1C(=O)N(C1CCC(=O)NC1=O)C2=O (stereo not given) | > 100000 nM | > 100000 nM
CS(=O)(=O)c1nccc(-c2c(-c3ccc(F)c(OCCc4ccc(F)cc4)c3)nc3sccn23)n1 | 1810 nM | 3530 nM
COc1cc2cc(Oc3ccc(NC(=O)Nc4ccc(F)c(C(F)(F)F)c4)cc3)c(C)nc2cc1OCCN1CCCCC1 | 1470 nM | 2920 nM
C[C@H]1[C@H](OC(=O)CCC(=O)O)O[C@@H]2O[C@]3(C)CC[C@H]4[C@H](C)CC[C@@H]1[C@@]24OO3 | 2860 nM | 24700 nM
COc1cccc(NC(=O)c2sc3nc4c(cc3c2N)CCCC4)c1 | 239 nM | 874 nM
C1CCC([PH+](C2CCCCC2)C2CCCCC2[PH+](C2CCCCC2)C2CCCCC2)CC1.[Au].[CH-]1CCCCC1C1CCCC[N-]1 (stereo not given) | 154 nM | 641 nM
Cc1cc(NC(=O)C2c3ccccc3C(=O)N(CC(C)C)C2c2cccs2)no1 (stereo not given) | 43800 nM | > 100000 nM
COc1cc2c(cc1OC)C(=O)C(Br)CC2 (stereo not given) | 1280 nM | 3570 nM
COc1ccccc1C(=O)/C=C/c1cc2cccc(OC)c2[nH]c1=O | 104 nM | 2010 nM
COc1ccc(/C=C2\CN(C(=O)CCN3CCC(=NO)CC3)C/C(=C\c3ccc(OC)cc3)C2=O)cc1 | 2010 nM | 4580 nM
COc1cc2cc(Oc3ccc(NC(=O)Nc4cccc(C(F)(F)F)c4)cc3)c(C)nc2cc1OCCN1CCCCC1 | 1590 nM | 3210 nM
